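All cell lines were grown in 96-well plates and treated with compound for 48 hours. At the GI50, growth is halved. TGI marks complete inhibition of growth.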 Where a SMILES comes first, the peptide text is derived from it. The star is where a group is joined. Palmitoyl = CCCCCCCCCCCCCCCC(=O)*
Columns and labels:
Test in all cases: DTP human tumour cell line panel, 48 h
SNB-75 CNS = test system: SNB-75 CNS
OVCAR-3 ovarian = test system: OVCAR-3 ovarian
HS 578T breast = test system: HS 578T breast
OVCAR-5 ovarian = test system: OVCAR-5 ovarian
MDA-MB-435 = test system: MDA-MB-435
CAKI-1 renal = test system: CAKI-1 renal
K-562 leukemia = test system: K-562 leukemia
HCT-15 colon = test system: HCT-15 colon
UACC-62 melanoma = test system: UACC-62 melanoma

CCOC(=O)C(NC(=O)CC)(N1CCN(c2cc3c(cc2F)c(=O)c(C(=O)O)cn3C2CC2)CC1)C(F)(F)F (configuration not stated)
TGI (SNB-75 CNS): > 100 µM | TGI (OVCAR-3 ovarian): > 100 µM | TGI (HS 578T breast): > 100 µM | TGI (OVCAR-5 ovarian): > 100 µM | TGI (MDA-MB-435): > 100 µM | TGI (CAKI-1 renal): > 100 µM | TGI (K-562 leukemia): > 100 µM | TGI (HCT-15 colon): > 100 µM | TGI (UACC-62 melanoma): > 100 µM

O=C(OCC(Cl)(Cl)Cl)N1CC[C@H](C2CCCCC2)C1
TGI (SNB-75 CNS): 35.9 µM | TGI (OVCAR-3 ovarian): 30.3 µM | TGI (OVCAR-5 ovarian): 34.4 µM | TGI (CAKI-1 renal): 88.9 µM | TGI (K-562 leukemia): 53 µM | TGI (HCT-15 colon): 34.8 µM | TGI (UACC-62 melanoma): 52.9 µM

c1ccc(C(C(=Nc2ccc(Cc3ccc(N=C(C(c4ccccc4)c4ccccc4)N4CC4)cc3)cc2)N2CC2)c2ccccc2)cc1
TGI (OVCAR-3 ovarian): 24.6 µM | TGI (HS 578T breast): 35.7 µM | TGI (OVCAR-5 ovarian): 24.5 µM | TGI (MDA-MB-435): 21.1 µM | TGI (CAKI-1 renal): 24.1 µM | TGI (K-562 leukemia): 17.6 µM | TGI (HCT-15 colon): 21.7 µM | TGI (UACC-62 melanoma): 21.7 µM

CCCCCCCCCCCCCCCC(=O)N1CCCC1C(=O)NCC(=O)NC(Cc1ccccc1)C(=O)N1CCCC1C(=O)NC(CO)C(=O)NC(Cc1ccc(O)cc1)C(=O)NC(CCCCN)C(=O)NC(CC(C)C)C(=O)NC(CCCN=C(N)N)C(=O)N1CCCC1C(=O)NCC(N)=O (configuration not stated) (Palmitoyl-PGFPSYKLRPG-NH2; configuration not given here)
GI50 (SNB-75 CNS): 21.7 µM | TGI (SNB-75 CNS): 49.3 µM | GI50 (OVCAR-3 ovarian): 33.3 µM | TGI (OVCAR-3 ovarian): > 100 µM | GI50 (HS 578T breast): 22.2 µM | TGI (HS 578T breast): 74.5 µM | GI50 (OVCAR-5 ovarian): 17.1 µM | TGI (OVCAR-5 ovarian): 37.8 µM | GI50 (MDA-MB-435): 23.6 µM | TGI (MDA-MB-435): > 100 µM | GI50 (CAKI-1 renal): 20.9 µM | TGI (CAKI-1 renal): 50.6 µM | GI50 (K-562 leukemia): 14.3 µM | TGI (K-562 leukemia): 38.5 µM

CCCCOCCOC1=C(Cl)C(=O)c2c(O)ccc(O)c2C1=O
TGI (SNB-75 CNS): 2.01 µM | TGI (OVCAR-3 ovarian): 1.63 µM | TGI (HS 578T breast): 5.43 µM | TGI (OVCAR-5 ovarian): 2.66 µM | TGI (MDA-MB-435): 1.07 µM | TGI (CAKI-1 renal): 1.36 µM | TGI (HCT-15 colon): 0.331 µM | TGI (UACC-62 melanoma): 2.64 µM

O=C1CSC2(CC(/C=C/c3cccs3)=NN2c2cccc(S(=O)(=O)O)c2)N1c1nc2ccccc2s1 (configuration not stated)
TGI (SNB-75 CNS): > 100 µM | TGI (HS 578T breast): > 100 µM | TGI (OVCAR-5 ovarian): > 100 µM | TGI (MDA-MB-435): > 100 µM | TGI (CAKI-1 renal): > 100 µM | TGI (K-562 leukemia): > 100 µM | TGI (HCT-15 colon): > 100 µM | TGI (UACC-62 melanoma): > 100 µM

[N-]=[N+]=CC(=O)OC(CCl)CCl
TGI (OVCAR-3 ovarian): > 100 µM | TGI (OVCAR-5 ovarian): > 100 µM | TGI (MDA-MB-435): > 100 µM | TGI (K-562 leukemia): > 100 µM | TGI (HCT-15 colon): > 100 µM | TGI (UACC-62 melanoma): > 100 µM

Cc1nc2ccccc2c(-n2cccn2)c1CCn1cccn1
TGI (OVCAR-3 ovarian): > 100 µM | TGI (HS 578T breast): > 100 µM | TGI (OVCAR-5 ovarian): > 100 µM | TGI (MDA-MB-435): > 100 µM | TGI (CAKI-1 renal): > 100 µM | TGI (K-562 leukemia): > 100 µM | TGI (HCT-15 colon): > 100 µM | TGI (UACC-62 melanoma): > 100 µM

COc1ccc(/C=N/NC(=O)c2ccc(O)c(CN(C)C)c2)cc1
TGI (OVCAR-3 ovarian): > 100 µM | TGI (HS 578T breast): > 100 µM | TGI (OVCAR-5 ovarian): > 100 µM | TGI (MDA-MB-435): > 100 µM | TGI (CAKI-1 renal): > 100 µM | TGI (K-562 leukemia): > 100 µM | TGI (HCT-15 colon): > 100 µM | TGI (UACC-62 melanoma): > 100 µM

CO/N=C(/C(=O)OC)c1ccccc1COc1ccccc1C(F)(F)F
TGI (OVCAR-3 ovarian): > 100 µM | TGI (HS 578T breast): > 100 µM | TGI (OVCAR-5 ovarian): > 100 µM | TGI (MDA-MB-435): > 100 µM | TGI (CAKI-1 renal): > 100 µM | TGI (K-562 leukemia): > 100 µM | TGI (HCT-15 colon): > 100 µM | TGI (UACC-62 melanoma): > 100 µM

Cc1ccnc(NC(=S)Nc2ccc([N+](=O)[O-])cc2)c1
TGI (SNB-75 CNS): > 100 µM | TGI (HS 578T breast): 94.8 µM | TGI (MDA-MB-435): > 100 µM | TGI (K-562 leukemia): > 100 µM | TGI (HCT-15 colon): > 100 µM | TGI (UACC-62 melanoma): > 100 µM

Cc1cc(C)nc(NC(=S)Nc2ccc([N+](=O)[O-])cc2)c1
TGI (SNB-75 CNS): > 100 µM | TGI (HS 578T breast): > 100 µM | TGI (MDA-MB-435): > 100 µM | TGI (CAKI-1 renal): > 100 µM | TGI (K-562 leukemia): > 100 µM | TGI (HCT-15 colon): > 100 µM | TGI (UACC-62 melanoma): > 100 µM

COc1cc2c(cc1OCCCN1C(=O)c3cccc4cccc(c34)C1=O)N=C[C@@H]1CCCN1C2=O
TGI (OVCAR-3 ovarian): > 85.1 µM | TGI (OVCAR-5 ovarian): > 100 µM | TGI (MDA-MB-435): > 100 µM | TGI (CAKI-1 renal): > 58.1 µM | TGI (K-562 leukemia): > 80.5 µM | TGI (HCT-15 colon): > 77.9 µM | TGI (UACC-62 melanoma): > 100 µM

Cc1ccc(/C=C2/N=C(N/N=C\C(O)C(O)C(O)C(O)CO)NC2=O)cc1 (configuration not stated)
TGI (SNB-75 CNS): > 100 µM | TGI (OVCAR-3 ovarian): > 100 µM | TGI (HS 578T breast): > 100 µM | TGI (OVCAR-5 ovarian): > 100 µM | TGI (MDA-MB-435): > 100 µM | TGI (CAKI-1 renal): > 100 µM | GI50 (K-562 leukemia): > 100 µM | TGI (K-562 leukemia): > 100 µM | TGI (HCT-15 colon): > 100 µM

COc1cc2c(cc1OCCCCCN1CCN(c3ncnc4ccccc34)CC1)N=CC1CCCN1C2=O (configuration not stated)
GI50 (SNB-75 CNS): 0.0168 µM | TGI (SNB-75 CNS): 0.0823 µM | GI50 (OVCAR-3 ovarian): 0.0223 µM | TGI (OVCAR-3 ovarian): 0.0512 µM | GI50 (HS 578T breast): 0.0275 µM | TGI (HS 578T breast): 0.0842 µM | GI50 (OVCAR-5 ovarian): 0.0359 µM | TGI (OVCAR-5 ovarian): 14.7 µM | GI50 (CAKI-1 renal): 0.0292 µM | TGI (CAKI-1 renal): 1.17 µM | GI50 (K-562 leukemia): < 0.0174 µM | GI50 (HCT-15 colon): 206 nM | TGI (HCT-15 colon): 4.09 µM | GI50 (UACC-62 melanoma): 19.6 nM | TGI (UACC-62 melanoma): 0.0383 µM

CN(C)Cc1cc(C(=O)/C=C/c2ccc([N+](=O)[O-])cc2)cc(CN(C)C)c1O
TGI (SNB-75 CNS): 33.3 µM | TGI (OVCAR-3 ovarian): 20.6 µM | TGI (HS 578T breast): 60.3 µM | TGI (OVCAR-5 ovarian): 34.5 µM | TGI (MDA-MB-435): 37.3 µM | TGI (K-562 leukemia): > 100 µM | TGI (HCT-15 colon): 25.1 µM | TGI (UACC-62 melanoma): 33.3 µM

Clc1sc(Cl)c2c1[C@@H](Cl)C[C@@H]2Br
TGI (SNB-75 CNS): > 100 µM | TGI (HS 578T breast): > 100 µM | TGI (OVCAR-5 ovarian): > 100 µM | TGI (MDA-MB-435): > 100 µM | TGI (CAKI-1 renal): > 100 µM | TGI (K-562 leukemia): > 100 µM | TGI (HCT-15 colon): > 100 µM | TGI (UACC-62 melanoma): > 100 µM

COc1cc(C=O)ccc1O
TGI (SNB-75 CNS): > 100 µM | TGI (OVCAR-3 ovarian): > 100 µM | TGI (HS 578T breast): > 100 µM | TGI (OVCAR-5 ovarian): > 100 µM | TGI (MDA-MB-435): > 100 µM | TGI (CAKI-1 renal): > 100 µM | TGI (K-562 leukemia): > 100 µM | TGI (HCT-15 colon): > 100 µM

O=C(CNc1ccc(Cl)cc1Cl)Nn1c(-c2ccccc2)nc2ccccc2c1=O
TGI (SNB-75 CNS): 30.5 µM | TGI (OVCAR-3 ovarian): 31.3 µM | TGI (HS 578T breast): 71.8 µM | TGI (OVCAR-5 ovarian): 37.5 µM | TGI (MDA-MB-435): 30.2 µM | TGI (K-562 leukemia): 36.5 µM | TGI (HCT-15 colon): 33.5 µM | TGI (UACC-62 melanoma): 19.5 µM

O=C1C(=Nc2ccc(Nc3ccccc3)cc2)Oc2ccccc21
TGI (SNB-75 CNS): 8.52 µM | TGI (OVCAR-3 ovarian): 4.42 µM | TGI (OVCAR-5 ovarian): 10.1 µM | TGI (MDA-MB-435): 3.45 µM | TGI (CAKI-1 renal): 7.58 µM | TGI (K-562 leukemia): 11.4 µM | TGI (HCT-15 colon): 13.2 µM | TGI (UACC-62 melanoma): 10.7 µM

Cc1cc(OP2(=O)NCc3ncccc3O2)ccc1Cl (configuration not stated)
TGI (SNB-75 CNS): > 100 µM | TGI (OVCAR-3 ovarian): > 100 µM | TGI (OVCAR-5 ovarian): > 100 µM | TGI (MDA-MB-435): > 100 µM | TGI (CAKI-1 renal): > 100 µM | TGI (K-562 leukemia): > 100 µM | TGI (HCT-15 colon): > 100 µM | TGI (UACC-62 melanoma): > 100 µM

CN1CC[C@]2(c3cccc(O)c3)CC(=O)/C(=C/c3ccccc3)[C@@H]1C2
TGI (SNB-75 CNS): 5.27 µM | TGI (OVCAR-3 ovarian): 4.43 µM | TGI (HS 578T breast): 13 µM | TGI (OVCAR-5 ovarian): 29.7 µM | TGI (MDA-MB-435): 5.38 µM | TGI (CAKI-1 renal): 6.04 µM | TGI (K-562 leukemia): 4.01 µM | TGI (HCT-15 colon): 4.93 µM

C=C(C)CNCCN
TGI (OVCAR-3 ovarian): > 100 µM | TGI (HS 578T breast): > 100 µM | TGI (OVCAR-5 ovarian): > 100 µM | TGI (MDA-MB-435): > 100 µM | TGI (CAKI-1 renal): > 100 µM | TGI (K-562 leukemia): > 100 µM | TGI (HCT-15 colon): > 100 µM | TGI (UACC-62 melanoma): > 100 µM

Reference: PubChem BioAssay (NCI)
